Source: ChEMBL document CHEMBL1201862, “PubChem BioAssay data set” (2004)
One block for each molecule: values may come before it. Activity calls are given as the source filed them.

Key:
Coagulation factor XII = biological target: T1, Coagulation factor XII (Homo sapiens, UniProt P00748); type: functional;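 also: activated factor XIIa alpha cleaving a fluorogenic AMC peptide substrate; inhibitor potency from loss of enzyme activity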
T1 sequence (P00748 whole entry): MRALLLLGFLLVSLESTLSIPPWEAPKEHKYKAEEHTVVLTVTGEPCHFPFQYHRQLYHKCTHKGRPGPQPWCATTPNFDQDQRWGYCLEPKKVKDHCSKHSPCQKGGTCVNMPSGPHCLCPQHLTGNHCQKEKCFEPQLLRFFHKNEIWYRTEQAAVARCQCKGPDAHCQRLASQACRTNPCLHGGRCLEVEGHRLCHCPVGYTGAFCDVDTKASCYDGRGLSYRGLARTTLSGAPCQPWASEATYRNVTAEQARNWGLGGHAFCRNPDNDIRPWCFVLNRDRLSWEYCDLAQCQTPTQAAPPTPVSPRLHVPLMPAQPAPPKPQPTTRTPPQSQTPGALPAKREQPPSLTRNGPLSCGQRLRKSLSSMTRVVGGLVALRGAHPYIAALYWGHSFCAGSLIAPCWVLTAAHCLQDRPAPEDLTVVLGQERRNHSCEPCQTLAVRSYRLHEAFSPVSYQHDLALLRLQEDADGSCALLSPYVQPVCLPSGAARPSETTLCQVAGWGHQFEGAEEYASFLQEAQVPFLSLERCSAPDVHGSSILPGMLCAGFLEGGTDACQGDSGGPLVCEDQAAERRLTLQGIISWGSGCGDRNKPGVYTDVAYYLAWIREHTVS

[1] = biological target: Peroxisome proliferator-activated receptor gamma/Nuclear receptor coactivator 1 (Homo sapiens, UniProt P37231); assay: (§1) TR-FRET dose response biochemical High Throughput Screening assay for agonists of the steroid receptor coactivator 1 (SRC-1) recruitment by the peroxisome proliferator-activated receptor gamma (PPAR gamma): non-selective agonists. [Related pubchem assays (depositor defined):AID1300, AID1808, AID504735, AID631]; type: protein assay
[2] = biological target: Peroxisome proliferator-activated receptor gamma/Nuclear receptor coactivator 3 (Homo sapiens, UniProt P37231); assay: as §1, with “3 (SRC-3)” for “1 (SRC-1)”, “assays: 1301 (Confirmation screen.), 1048 (Primary screen.)]” for “assays (depositor defined):AID1300, AID1808, AID504735, AID631]”; type: functional
[3] = biological target: Peroxisome proliferator-activated receptor gamma/Nuclear receptor coactivator 2 (Homo sapiens, UniProt P37231); assay: TR-FRET dose response biochemical High Throughput Screening assay for agonists of the steroid receptor coactivator 2 (SRC-2) recruitment by the peroxisome proliferator-activated receptor gamma (PPAR gamma): non-selective agonists. [Related pubchem assays: 1297, 1032 ]; type: functional
[4] = biological target: T2, Carboxy-terminal domain RNA polymerase II polypeptide A small phosphatase 1 (Homo sapiens, UniProt Q9GZU7); assay: inhibitors of CTDSP1, concentration-response testing, biochemical assay, absorbance-based, actives from ultra-high-throughput screening (AID 540297); type: functional
T2 sequence (Q9GZU7 whole entry): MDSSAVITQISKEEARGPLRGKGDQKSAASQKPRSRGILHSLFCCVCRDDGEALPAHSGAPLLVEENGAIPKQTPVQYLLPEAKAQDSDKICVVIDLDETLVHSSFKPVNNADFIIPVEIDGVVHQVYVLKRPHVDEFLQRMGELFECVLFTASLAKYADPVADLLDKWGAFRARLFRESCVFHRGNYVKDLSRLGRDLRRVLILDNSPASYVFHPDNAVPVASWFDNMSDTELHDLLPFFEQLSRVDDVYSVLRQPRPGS

[5] = biological target: T3, Low molecular weight phosphotyrosine protein phosphatase (Homo sapiens, UniProt P24666); type: functional; settings: read-out: IC50_Mean;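 also: Dose-response confirmation assay measuring inhibition of LMPTP enzyme activity by fluorescence intensity read-out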
T3 sequence (P24666 whole entry): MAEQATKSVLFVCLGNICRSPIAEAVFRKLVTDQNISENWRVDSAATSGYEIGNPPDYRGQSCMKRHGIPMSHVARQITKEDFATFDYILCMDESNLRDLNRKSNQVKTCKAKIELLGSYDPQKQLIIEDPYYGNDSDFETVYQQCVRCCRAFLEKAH

Large T antigen = Large T antigen (Simian virus 40, UniProt P03070); type: functional, Betapolyomavirus macacae;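 also: Confirmatory-stage PubChem screen for compounds that inhibit SV40 T antigen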
[6] = biological target: Dual specificity tyrosine-phosphorylation-regulated kinase 1A (Rattus norvegicus, UniProt Q63470); type: biochemical, Homo sapiens
[7] = biological target: 26S proteasome non-ATPase regulatory subunit 14 (Homo sapiens, UniProt O00487); assay: inhibition of proteasome subunit RPN11 – biochemical, fluorescence polarization, uHTS hits, confirmation (AID 602368); type: functional
[8] = biological target: 72 kDa type IV collagenase (Homo sapiens, UniProt P08253); assay: Dose Response validation of uHTS RPN11 inhibitor hits using a MMP-2 Fluorescence assay.; type: functional
Prothrombin = Prothrombin (Bos taurus, UniProt P00735); assay: thrombin inhibition, dose response, biochemical, fluorescence polarization, uHTS hits (AID 602369); type: functional
[9] = Luminescence Cell-Based Dose Retest to Confirm Inhibitors of Cancer Stem Cells. [Related pubchem assays (depositor defined):AID2717, AID2721]; type: functional; settings: Homo sapiens
[10] = cytotoxicity in HMLE control line with eGFP shRNA, dose response, counter-screen for HMLE_sh_ECad selective toxicity project, cell-based, HMLE_sh_eGFP, luminescence (AID 463074); type: functional, Homo sapiens;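 also: HMLE human mammary epithelial cells expressing control shRNA against eGFP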
[11] = biological target: T4, Lysosomal acid glucosylceramidase (Homo sapiens, UniProt P04062); assay: Dose response cell-based high throughput screening assay to identify enhancers of beta-glucosidase activity. [Related pubchem assays: 784 ]; type: functional
T4 sequence (P04062 whole entry): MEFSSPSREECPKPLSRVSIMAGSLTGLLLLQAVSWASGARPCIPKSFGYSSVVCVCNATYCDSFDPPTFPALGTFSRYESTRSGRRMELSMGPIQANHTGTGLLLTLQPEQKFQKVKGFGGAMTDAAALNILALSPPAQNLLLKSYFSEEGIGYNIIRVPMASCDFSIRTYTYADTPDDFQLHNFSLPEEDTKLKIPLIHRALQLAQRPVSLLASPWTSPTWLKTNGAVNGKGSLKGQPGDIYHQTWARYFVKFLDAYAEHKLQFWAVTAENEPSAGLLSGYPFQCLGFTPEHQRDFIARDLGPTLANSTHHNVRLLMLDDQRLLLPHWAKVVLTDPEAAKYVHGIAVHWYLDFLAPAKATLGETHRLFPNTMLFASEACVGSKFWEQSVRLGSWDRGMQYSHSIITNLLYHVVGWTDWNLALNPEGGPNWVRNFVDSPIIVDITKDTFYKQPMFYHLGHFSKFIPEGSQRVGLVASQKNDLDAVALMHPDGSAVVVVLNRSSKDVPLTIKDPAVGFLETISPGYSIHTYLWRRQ

BJ [12] = assay: cytotoxicity toward BJ-TERT fibroblasts, dose response, cell-based, RAS-independent, luminescence (AID 1933); type: functional; settings: Homo sapiens
[13] = biological target: T5, Luciferin 4-monooxygenase (Photinus pyralis, UniProt P08659); assay: Counter Screen for Luciferase-based Assay Positives. [Related pubchem assays: 620, 618, 411 ]
BJ [14] = assay: cells; type: functional, cell-based; settings: Homo sapiens
[15] = biological target: T5, Luciferin 4-monooxygenase; assay: firefly luciferase enzyme inhibitors, dose response, biochemical, luminescence (AID 1891)
[16] = Luminescence Cell-Based Dose Confirmation HTS to Identify Inhibitors of Platelet Dense Granule Release. [Related pubchem assays: 1663 (Primary HTS), 1678 (Summary of Project)]; type: functional
HT-1080 = assay: cytotoxicity in HT1080 fibrosarcoma cells, cell-based, fluorescence readout (AID 620); type: functional; settings: Homo sapiens
BJ [17] = assay: cytotoxicity toward BJ-TERT-LT-ST fibroblasts, dose response, cell-based, RAS-independent, luminescence (AID 1935); type: functional; settings: Homo sapiens;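 also: BJ fibroblasts immortalized with TERT plus LT and ST oncogenes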
[18] = cytotoxicity toward DRD oncogenic fibroblasts, dose response, cell-based, non-viral oncogenic, luminescence (AID 1934); type: functional; settings: Homo sapiens
[19] = biological target: Heat shock protein HSP 90-alpha (Homo sapiens, UniProt P07900); type: functional, organism-based
BJ [20] = assay: cytotoxicity toward Ras-transformed BJeLR fibroblasts, dose response, cell-based, alamar blue fluorescence, cherrypicked samples (AID 2631); type: functional; settings: Homo sapiens;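 also: confirmatory dose-response assay in RAS-dependent BJ fibroblasts engineered with TERT, LT and ST, with cytotoxicity read by fluorescence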
INS1 = assay: beta cell apoptosis inhibitors, cytokine rescue, dose response, luminescence, retest (AID 449756); type: functional, cell-based; settings: Rattus norvegicus;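 also: cell death triggered by IL-1 beta plus TNF-alpha plus IFN-gamma mixture; protective hits raise ATP signal compared with cytokine alone wells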

T5 sequence (P08659 whole entry): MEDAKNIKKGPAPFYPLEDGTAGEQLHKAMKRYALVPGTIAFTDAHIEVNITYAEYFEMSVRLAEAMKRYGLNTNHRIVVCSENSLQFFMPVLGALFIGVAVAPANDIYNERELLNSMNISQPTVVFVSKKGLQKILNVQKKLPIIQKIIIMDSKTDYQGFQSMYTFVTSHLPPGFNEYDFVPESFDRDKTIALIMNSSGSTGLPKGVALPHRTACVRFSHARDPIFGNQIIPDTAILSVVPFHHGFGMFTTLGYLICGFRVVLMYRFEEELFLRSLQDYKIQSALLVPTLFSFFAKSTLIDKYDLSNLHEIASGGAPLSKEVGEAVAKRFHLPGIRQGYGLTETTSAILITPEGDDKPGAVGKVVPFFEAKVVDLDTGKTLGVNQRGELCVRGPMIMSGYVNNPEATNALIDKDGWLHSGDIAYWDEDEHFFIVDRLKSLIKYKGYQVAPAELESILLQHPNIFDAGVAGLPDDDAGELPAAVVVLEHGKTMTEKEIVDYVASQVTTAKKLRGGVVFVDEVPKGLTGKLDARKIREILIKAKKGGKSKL
Chain of 72 kDa type IV collagenase (P08253 whole entry): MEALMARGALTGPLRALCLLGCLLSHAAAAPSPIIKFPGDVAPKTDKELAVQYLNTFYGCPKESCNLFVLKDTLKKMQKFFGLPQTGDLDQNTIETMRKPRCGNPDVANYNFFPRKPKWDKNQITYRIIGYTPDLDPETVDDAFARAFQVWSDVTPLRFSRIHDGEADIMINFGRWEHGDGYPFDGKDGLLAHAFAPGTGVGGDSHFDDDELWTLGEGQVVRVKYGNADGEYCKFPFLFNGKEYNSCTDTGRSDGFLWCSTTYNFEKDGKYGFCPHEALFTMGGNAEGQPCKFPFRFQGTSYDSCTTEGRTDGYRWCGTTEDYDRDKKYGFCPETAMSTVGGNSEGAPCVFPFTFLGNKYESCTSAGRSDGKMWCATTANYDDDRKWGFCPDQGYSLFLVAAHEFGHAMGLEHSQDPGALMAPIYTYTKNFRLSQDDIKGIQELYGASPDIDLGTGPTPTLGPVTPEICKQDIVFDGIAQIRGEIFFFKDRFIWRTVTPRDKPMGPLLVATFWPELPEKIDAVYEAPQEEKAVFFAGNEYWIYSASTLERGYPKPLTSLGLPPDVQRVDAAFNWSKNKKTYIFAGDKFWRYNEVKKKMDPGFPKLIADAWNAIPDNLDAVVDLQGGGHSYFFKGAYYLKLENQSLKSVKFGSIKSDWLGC
Chain of 26S proteasome non-ATPase regulatory subunit 14 (O00487 whole entry): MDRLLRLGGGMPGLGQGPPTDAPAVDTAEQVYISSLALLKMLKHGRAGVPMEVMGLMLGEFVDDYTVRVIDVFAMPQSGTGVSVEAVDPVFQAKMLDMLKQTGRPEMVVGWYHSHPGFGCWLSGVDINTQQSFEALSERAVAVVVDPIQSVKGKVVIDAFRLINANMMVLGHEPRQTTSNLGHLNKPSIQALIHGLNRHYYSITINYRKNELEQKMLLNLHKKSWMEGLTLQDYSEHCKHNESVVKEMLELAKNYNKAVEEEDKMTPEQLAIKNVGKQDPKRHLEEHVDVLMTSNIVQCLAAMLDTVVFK
Chain of Large T antigen (P03070 whole entry): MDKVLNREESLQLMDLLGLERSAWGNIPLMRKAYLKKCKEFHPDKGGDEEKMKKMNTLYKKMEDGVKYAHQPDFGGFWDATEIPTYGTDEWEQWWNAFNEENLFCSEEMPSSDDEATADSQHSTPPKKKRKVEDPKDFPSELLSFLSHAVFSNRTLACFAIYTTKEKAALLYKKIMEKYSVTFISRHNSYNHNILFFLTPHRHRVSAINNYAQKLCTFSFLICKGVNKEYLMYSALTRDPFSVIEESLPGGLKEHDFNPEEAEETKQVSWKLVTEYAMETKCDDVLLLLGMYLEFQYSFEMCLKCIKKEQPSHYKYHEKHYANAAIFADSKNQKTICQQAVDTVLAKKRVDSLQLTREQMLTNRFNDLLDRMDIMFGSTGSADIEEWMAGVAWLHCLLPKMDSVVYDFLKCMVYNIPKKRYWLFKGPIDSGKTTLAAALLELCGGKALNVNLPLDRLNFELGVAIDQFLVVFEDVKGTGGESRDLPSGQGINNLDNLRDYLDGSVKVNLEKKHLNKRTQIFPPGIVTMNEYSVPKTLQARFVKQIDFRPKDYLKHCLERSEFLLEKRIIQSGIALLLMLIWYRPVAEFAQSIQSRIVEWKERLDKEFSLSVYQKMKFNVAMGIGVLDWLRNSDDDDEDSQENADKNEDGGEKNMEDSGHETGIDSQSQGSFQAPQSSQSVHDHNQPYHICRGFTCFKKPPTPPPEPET
Chain of Peroxisome proliferator-activated receptor gamma/Nuclear receptor coactivator 3 (P37231 whole entry): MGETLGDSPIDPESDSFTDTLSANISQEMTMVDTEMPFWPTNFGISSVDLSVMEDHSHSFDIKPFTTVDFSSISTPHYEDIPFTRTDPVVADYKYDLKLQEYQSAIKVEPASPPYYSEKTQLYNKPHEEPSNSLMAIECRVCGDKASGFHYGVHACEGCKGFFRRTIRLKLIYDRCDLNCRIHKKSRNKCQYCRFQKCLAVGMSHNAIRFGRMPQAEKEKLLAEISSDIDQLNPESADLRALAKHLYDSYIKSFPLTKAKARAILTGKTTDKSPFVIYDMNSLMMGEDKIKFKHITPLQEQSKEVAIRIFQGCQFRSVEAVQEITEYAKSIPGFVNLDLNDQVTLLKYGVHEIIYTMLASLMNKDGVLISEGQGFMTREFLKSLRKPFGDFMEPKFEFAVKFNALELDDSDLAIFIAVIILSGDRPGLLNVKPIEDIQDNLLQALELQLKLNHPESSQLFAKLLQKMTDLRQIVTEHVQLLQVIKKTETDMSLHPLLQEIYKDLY
Chain of Peroxisome proliferator-activated receptor gamma/Nuclear receptor coactivator 3 (Q9Y6Q9 whole entry, further chain): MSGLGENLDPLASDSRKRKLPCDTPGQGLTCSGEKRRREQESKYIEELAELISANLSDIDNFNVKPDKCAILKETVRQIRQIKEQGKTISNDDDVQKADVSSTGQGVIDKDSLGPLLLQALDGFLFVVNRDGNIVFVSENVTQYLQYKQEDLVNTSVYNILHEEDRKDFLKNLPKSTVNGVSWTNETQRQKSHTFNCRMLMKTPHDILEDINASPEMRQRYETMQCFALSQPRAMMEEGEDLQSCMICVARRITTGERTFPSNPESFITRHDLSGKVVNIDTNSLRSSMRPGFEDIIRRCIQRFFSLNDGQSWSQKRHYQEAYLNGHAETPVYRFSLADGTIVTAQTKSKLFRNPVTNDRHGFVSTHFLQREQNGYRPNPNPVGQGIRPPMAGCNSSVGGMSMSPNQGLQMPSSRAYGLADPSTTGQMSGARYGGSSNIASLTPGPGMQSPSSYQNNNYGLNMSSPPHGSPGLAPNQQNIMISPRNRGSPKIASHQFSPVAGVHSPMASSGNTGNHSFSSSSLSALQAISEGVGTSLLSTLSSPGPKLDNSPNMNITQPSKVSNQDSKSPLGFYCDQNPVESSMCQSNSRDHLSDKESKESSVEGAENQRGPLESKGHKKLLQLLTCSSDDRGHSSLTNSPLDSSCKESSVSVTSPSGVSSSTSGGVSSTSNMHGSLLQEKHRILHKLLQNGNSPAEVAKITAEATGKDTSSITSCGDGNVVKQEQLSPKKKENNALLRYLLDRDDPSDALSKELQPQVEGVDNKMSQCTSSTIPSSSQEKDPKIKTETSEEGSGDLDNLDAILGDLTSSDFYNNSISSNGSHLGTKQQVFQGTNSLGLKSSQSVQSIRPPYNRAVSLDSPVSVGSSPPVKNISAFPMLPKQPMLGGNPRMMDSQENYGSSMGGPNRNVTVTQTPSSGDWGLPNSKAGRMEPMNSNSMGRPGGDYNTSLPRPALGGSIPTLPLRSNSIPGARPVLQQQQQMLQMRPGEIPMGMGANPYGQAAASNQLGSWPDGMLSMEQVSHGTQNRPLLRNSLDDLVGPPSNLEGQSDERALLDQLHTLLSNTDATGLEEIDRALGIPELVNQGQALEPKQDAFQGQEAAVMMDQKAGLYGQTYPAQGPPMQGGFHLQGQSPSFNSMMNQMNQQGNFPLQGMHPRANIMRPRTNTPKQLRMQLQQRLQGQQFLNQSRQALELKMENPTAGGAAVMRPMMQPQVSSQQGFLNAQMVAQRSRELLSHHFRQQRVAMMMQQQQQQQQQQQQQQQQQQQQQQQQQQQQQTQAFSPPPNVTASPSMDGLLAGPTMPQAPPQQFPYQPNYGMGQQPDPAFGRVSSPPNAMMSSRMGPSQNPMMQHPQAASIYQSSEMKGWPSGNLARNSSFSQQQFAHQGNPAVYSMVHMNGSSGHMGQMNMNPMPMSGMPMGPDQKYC

IC50 (Coagulation factor XII): > 50 µM (inactive)
Compound: COc1ccc(-c2cc(C(=O)c3c(N)n(C)c(=O)n(C)c3=O)c3ccccc3n2)cc1OC

EC50 [1]: > 79.4 µM (inactive)
EC50 [2]: > 79.4 µM (not active)
EC50 [3]: > 26.5 µM (not active)
Compound: CCOC(=O)C1CCCN(CC(=O)Nc2c(C(=O)OC)[nH]c3ccc(Br)cc23)C1 (stereo unspecified)

IC50 [4]: 6.3 µM (active)
IC50 [5]: 13.7 µM (active)
Compound: O=c1c2cc(-c3ccccc3)sc2nc2n1N=C(c1cccs1)CS2

IC50 (Large T antigen): 3.5 µM (active)
AC50 [6]: 754 nM (active)
Compound: Oc1ccc2c(c1)oc1cc(O)ccc12

IC50 [7]: 23.2 µM (active)
IC50 [8]: > 100 µM (inactive)
IC50 (Prothrombin): 29.2 µM (active)
Compound: Cc1cc(C)c(S(=O)(=O)N2C[C@H]3CON(C)[C@H]3C[C@H]2c2ccc(N3CCCCC3)cc2)c(C)c1

Compound: COc1ccc(-n2c(/C=C/c3ccc(O)c(O)c3)nc3ccccc3c2=O)cc1
IC50 (Large T antigen): 55.9 µM (active)
IC50 [7]: 9.05 µM (active)
IC50 [8]: > 100 µM (inactive)
IC50 (Prothrombin): 6.49 µM (active)

Compound: O=C(NNc1nc(-c2ccc(Cl)cc2)cs1)c1ccco1
AC50 [9]: 1.8 µM (active)
AC50 [10]: 87.8 µM (active)

EC50 [11]: > 50 µM (not active)
IC50 (Coagulation factor XII): > 50 µM (inactive)
Compound: CCn1c(SCC(=O)N2CCN(c3ccccc3)CC2)nnc1-c1cc2cc(Cl)ccc2o1

IC50 (Coagulation factor XII): > 50 µM (inactive)
Compound: COc1ccc(N(CC(=O)Nc2ccccc2SC)S(C)(=O)=O)cc1OC

Compound: CCOc1ccc2nc(NC(=O)c3ccoc3C)sc2c1
EC50 (BJ [12]): 2.43 µM (active)
EC50 [13]: 6.49 µM (active)
EC50 (BJ [14]): 1.79 µM (active)
EC50 [15]: < 88 nM (active)
EC50 [16]: 231 nM (active)
EC50 (HT-1080): > 50 µM (not active)
EC50 (BJ [17]): 6.32 µM (active)
EC50 [18]: 1.97 µM (active)
AC50 [19]: 2.02 µM (active)
EC50 (BJ [20]): > 133 µM (inactive)

Compound: O=C(NCCCn1ccnc1)c1ccc(N2CCCCCC2)c([N+](=O)[O-])c1
EC50 (BJ [12]): > 150 µM (not active)
EC50 (BJ [14]): 7.97 µM (active)
EC50 (BJ [17]): 11.4 µM (active)
EC50 [18]: 25.6 µM (active)
EC50 (BJ [20]): 3.55 µM (active)
AC50 (INS1): 6.67 µM (active)
